From PubChem BioAssay AID857 (Vanderbilt High Throughput Screening Facility, 2007) come the findings set out here.

As usually defined, the EC50 is the concentration needed to bring the measured effect to its halfway point.

The target of the experiment is D(1B) dopamine receptor (Homo sapiens) (UniProt P21918). As to the kind of experiment: dopamine D5 receptor modulation at EC30 dopamine, dose response, selectivity assay for D1 allosteric modulator project, cell-based, HEK293, CRE-luciferase, luminescence (AID 857).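 Also: HEK 293 cells expressing human D5 with a CRE-driven luciferase reporter.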
D(1B) dopamine receptor (Homo sapiens), sequence (P21918 whole entry, looked up): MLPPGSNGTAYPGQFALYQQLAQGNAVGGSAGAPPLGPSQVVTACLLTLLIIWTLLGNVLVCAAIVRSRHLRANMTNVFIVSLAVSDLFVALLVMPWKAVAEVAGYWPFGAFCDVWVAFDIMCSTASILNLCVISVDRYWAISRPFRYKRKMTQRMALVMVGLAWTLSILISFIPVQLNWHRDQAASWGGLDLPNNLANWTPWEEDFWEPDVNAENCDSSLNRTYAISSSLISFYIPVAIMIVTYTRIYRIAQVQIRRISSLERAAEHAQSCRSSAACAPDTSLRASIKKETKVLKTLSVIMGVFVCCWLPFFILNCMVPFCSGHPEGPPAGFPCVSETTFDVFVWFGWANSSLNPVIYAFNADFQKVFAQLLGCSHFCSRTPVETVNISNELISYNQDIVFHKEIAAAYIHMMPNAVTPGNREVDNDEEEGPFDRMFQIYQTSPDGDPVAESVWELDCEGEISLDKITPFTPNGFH

Molecules are shown by their SMILES. Calls of active or inactive are those of the source.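 The calls were made as follows: active = a full or partial dose-response curve in at least two of three replicate runs; inactive = the rest.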

Take `Cc1cc(C)c(C#N)c(SCc2ccc(C#N)cc2)n1`: the outcome was inactive. Take `CCC(=O)Nc1nc2c(OC)ccc(OC)c2s1`: the result was inactive.

For the molecule `CC1(C)CC(=O)C2=C(C1)OC(N)=C(C#N)C2c1cccc(OC(=O)c2ccco2)c1` (stereo unspecified), the outcome was inactive.

On to `CSc1oc(-c2ccco2)nc1S(=O)(=O)c1ccc(Br)cc1`, for which the result was inactive. With `O=C1COc2ccc(C(=O)c3ccccc3)cc2CN1`, the result was inactive. In the case of `COc1ccccc1-c1nnc2n1N=C(C(C)(C)C)CS2`, the result was inactive. For the molecule `CC1(C)Cc2c(C#N)c(N3CCCC3)nc(-c3ccco3)c2CO1`, the result was inactive. With `CC(=O)N=c1sc2nc3ccccc3nc2n1N(C(C)=O)C(C)=O`, the outcome was inactive. On the same count and under the same terms, for `COc1ccc(C2CC(=O)Nc3ccccc3S2(=O)=O)cc1OC` (stereo unspecified) the value was “inactive”; for `COC(=O)c1ccccc1NC(=O)COc1ccc(S(=O)(=O)N2CCCC2)cc1C`, “inactive”; for `CCCNc1nc2c(c(=O)[nH]c(=O)n2C)n1CCc1ccccc1`, “inactive”. On to `Cn1c(Cn2c(=O)sc3ccccc32)nnc1SCC(=O)N1CCOCC1`, for which the outcome was inactive. Turning to `CCOC(=O)c1ccc(N2CN=C3SCC(=O)N3C2)cc1`, the result was inactive.

On to `c1ccc(C2=Nn3c(nnc3-c3ccncc3)SC2)cc1`, for which the outcome was inactive. For the molecule `COc1ccc(CN(C2CCCC2)S(=O)(=O)c2ccc(-n3cnnn3)cc2)cc1OC`, the result was inactive. On to `N#Cc1nc(N)nc(N(c2ccccc2)c2ccccc2)n1`, for which the outcome was inactive. On to `Nc1nc(CN2CCN(c3ccccc3)CC2)nc(N2CCCc3ccccc32)n1`, for which the result was inactive. Regarding `CCOc1ccccc1C1CC(c2ccccc2)Nc2nc(N)nn21` (stereo unspecified), the result was inactive.

As to `CCOC(=O)c1c(-c2cccs2)csc1NC(=O)CSc1ncn[nH]1`, the outcome was inactive. Take `Cc1c(C(=O)OCC(C)C)[nH]c2c1C(=O)CC(c1ccco1)C2` (stereo unspecified): the half-maximal effective concentration (EC50) is 1750 nM. As for `Cn1c(SCc2ccon2)nc2ccccc2c1=O`, the result was inactive. As to `O=C1OCCC1Sc1ncnc2sc3c(c12)CCC3` (stereo unspecified), the outcome was inactive. On the same count and under the same terms, in the case of `COC(=O)/C(=C1/Oc2cc3c(cc2S1)OCO3)C(F)(F)F` it was “inactive”. On the same count and under the same terms, for `COc1ccc(OC)c(C2C=C(c3ccc(C)c(C)c3)Nc3nnnn32)c1` (stereo unspecified) the value was “inactive”; for `CCn1c2ccccc2c2nc3ccccc3nc21`, “inactive”; for `CCCc1nc2sc3ccccc3c(=O)c2c(=O)n1Cc1ccco1`, “inactive”.

For `CCOC(=O)C1CCCN(c2nc3ccccc3nc2C(C#N)C(=O)OCC)C1` (stereo unspecified), the result was inactive. As to `CCOC(=O)CN(C(=O)CSc1nnc(-c2ccc(OC)c(OC)c2)o1)c1ccc(F)cc1`, the result was inactive. On to `COc1ccc(S(=O)(=O)N(C)c2ccc(C(=O)N3CCOCC3)cc2)cc1OC`, for which the outcome was inactive. The same measure, in the same setting: in the case of `CCOC(=O)C1CCCN(C(=O)c2cc(Cl)ccc2Cl)C1` (stereo unspecified) it was “inactive”; in that of `C/C(N)=C(/C#N)C(=O)CSc1nnc(SCc2ccc(Cl)cc2)s1`, “inactive”; in that of `COCCNc1oc(-c2ccc(C)cc2)nc1C#N`, “inactive”.

`COc1ncnc2c1N=C1CC(C)(C)CC(N)=C1S2`: the result was inactive. In the case of `CCN1C(=O)c2cccc3c(S(=O)(=O)Nc4ccccn4)ccc1c23`, the result was inactive. For `C/C(CCc1oc2ccccc2c1-c1ccc(C)o1)=N/O`, the outcome was inactive. As for `Cc1cc(C)n(CC(=O)n2c3c(c4ccccc42)CCCC3)n1`, the result was inactive. As to `COC(=O)c1cccc(S(=O)(=O)N2CCC(NC(=O)NC34CC5CC(CC(C5)C3)C4)CC2)c1`, the result was inactive.

Regarding `COc1cc(OC)cc(C(=O)Nn2cc(C(=O)N3CCN(C)CC3)c3ccccc3c2=O)c1`, the outcome was inactive. The same measure, in the same setting: in the case of `CCOC(=O)c1cc2c(=O)n3ccccc3nc2n(CCCOC)c1=NC(=O)c1cccnc1` it was “inactive”; in that of `COc1ccc(OC)c(C2=NOC(C(=O)Nc3cccc(C(C)=O)c3)C2)c1` (stereo unspecified), “inactive”; in that of `OCCn1nc2c3ccccc3nc-2n(-c2ccccc2)c1=S`, “inactive”. For the molecule `O=c1cc(-c2ccccc2)c2c([nH]1)CCCC2`, the outcome was inactive. In the case of `CCOC(=O)CCSc1nc(C)c2ccccc2n1`, the outcome was inactive. For the molecule `O=C1c2ccccc2-c2onc3ccc(NCCCn4ccnc4)c1c23`, the outcome was inactive.

For the molecule `O=C(CSc1nnc(COc2ccc(F)cc2)o1)N1c2ccccc2CCc2ccccc21`, the outcome was inactive.

In the case of `O=C(Nc1ncnc2sc3c(c12)CCCCC3)c1ccco1`, the outcome was inactive.

`CCOC(=O)c1c(NC(=O)CSc2nnc(CN3CCOCC3)n2C)sc2c1CCCC2`: the result was inactive.

With `Cn1cnc2c1c(=O)n(Cc1ccc(F)cc1Cl)c(=O)n2C`, the result was inactive. With `Cn1c(=O)c2[nH]c(NCC3CCCO3)nc2n(-c2ccccc2)c1=O` (stereo unspecified), the outcome was inactive. For the molecule `O=C(CCNS(=O)(=O)c1ccc2c(c1)CCC(=O)N2)NCc1ccc2c(c1)OCO2`, the outcome was inactive.

For `CSC1=NCCN1C(=O)c1ccc(Br)o1`, the outcome was inactive. Same read-out and setting: for `C=CCNC(=O)c1ccccc1NC(=O)c1ccccc1` the value was “inactive”; for `NC(=O)c1oc2ccccc2c1NC(=O)c1ccc(F)cc1`, “inactive”. Regarding `Cc1cc(C)nc(SCC(=O)Nc2ncc3c(n2)CC(C)(C)CC3=O)n1`, the outcome was inactive. As for `Cc1c(-c2ccccc2)nc(N)c(C#N)c1-c1ccco1`, the EC50 is 2010 nM.

For the molecule `CCCCn1c(=NC(=O)c2cccnc2)c(C(=O)OCC)cc2c(=O)n3ccccc3nc21`, the concentration giving a half-maximal response (EC50) was 1070 nM. In the case of `CCOC(=O)c1nn(-c2ccccc2C)c(=O)c(C#N)c1C`, the result was inactive. The same measure, in the same setting: for `N#Cc1c(N)nc(-c2ccccc2)nc1-c1ccccc1` the value was “inactive”; for `Cc1noc(C)c1CSc1ncnc2ccccc12`, “inactive”. For the molecule `Cc1nn2c(N3CCCC3)cc(C(C)C)nc2c1-c1ccccc1`, the result was inactive. Still for that read-out and setting: in the case of `c1csc(-c2nn3c(Cn4nnc5ccccc54)nnc3s2)c1` it was “inactive”; in that of `Cc1cc(N2CCN(S(=O)(=O)c3ccc4c(c3)OCCO4)CC2)n2ncnc2n1`, “inactive”. On to `CCOC(=O)c1c(C)oc2c1c(C=NCc1ccccn1)c(O)c1ccccc12`, for which the outcome was inactive.

On to `N#CCSc1nc2c(sc(=S)n2Cc2ccco2)c(=O)n1-c1ccc(F)cc1`, for which the outcome was inactive. For the molecule `COc1ccc(C2=NOC(C(=O)NC3CCCCC3)C2)cc1OC` (stereo unspecified), the outcome was inactive. The same measure, in the same setting: in the case of `O=c1[nH]c2cc3c(cc2cc1C(c1nnnn1C1CCCC1)N1CCSCC1)OCCO3` (stereo unspecified) it was “inactive”; in that of `CC(C)C1C2=C(CC(C)(C)CC2=O)ON1c1ccccc1` (stereo unspecified), “inactive”; in that of `CCSc1nc2c(c(=O)n1CC)SC(C)C2` (stereo unspecified), “inactive”. In the case of `COc1c(S(=O)(=O)n2nc(C)cc2C)ccc(Cl)c1Cl`, the result was inactive. Still for that read-out and setting: for `O=C1COc2ccccc2N1Cc1ccccc1Cl` the value was “inactive”; for `COc1ccc(-c2nnc(-c3ccc(Br)o3)o2)cc1OC`, “inactive”.

Regarding `CCOC(=O)N1CCN(C(=O)C(C)(C)Oc2ccc(Cl)cc2)CC1`, the result was inactive. For the molecule `C/C(=C\C(=O)c1ccccc1)Nc1cccc(O)c1`, the result was inactive. Turning to `CC(=O)c1cc(C#N)c(SCC(=O)OC(C)(C)C)nc1C`, the result was inactive.

As to `CCC(=O)n1nc(-c2ccco2)nc1N`, the outcome was inactive.

For the molecule `COc1ccc(-c2noc(COc3ccc4ccccc4c3Br)n2)cc1OC`, the result was inactive. Consider `CCc1ccc(C2=Nn3c(nnc3-c3cccs3)SC2)cc1`, for which the outcome was inactive. With `CCCCn1c(=NC(=O)c2ccco2)c(C(=O)OCC)cc2c(=O)n3ccccc3nc21`, the outcome was inactive. Regarding `COc1ccc(Cc2nnc(NC(=O)c3c(-c4ccccc4)noc3C)s2)cc1`, the outcome was inactive. As to `COC(=O)c1cc(NC(=O)CSc2nc(C)cc(=O)[nH]2)cc(C(=O)OC)c1`, the result was inactive. The same measure, in the same setting: for `Cc1cc(-c2cccs2)c2c(n1)sc1c(=O)[nH]c(=O)[nH]c12` the value was “inactive”; for `COc1cccc(NC2=NCC(=O)N2Cc2cccs2)c1`, “inactive”; for `CCOC(=O)C(C)Oc1cccc2c(=O)n(CC(=O)NCc3ccco3)ccc12` (stereo unspecified), “inactive”. As to `O=C(CC1SC(=NC2CCCCC2)NC1=O)Nc1ccccc1` (stereo unspecified), the result was inactive. For the molecule `CCOC(=O)N1CCC(N2Cc3cccc(C(=O)NC(C)c4ccc5c(c4)OCCO5)c3C2=O)CC1` (stereo unspecified), the result was inactive. On to `CCOC(=O)N1CCN(S(=O)(=O)c2ccc3c(c2)CCN3C(=O)C2CCC2)CC1`, for which the result was inactive. Consider `N#CC1=C(N)N(c2ccccc2)C2=C(C(=O)CCC2)C1c1ccsc1` (stereo unspecified), for which the outcome was inactive.

Regarding `O=S(=O)(c1ccccc1)c1nc(-c2ccco2)oc1N1CCCCCC1`, the result was inactive. Same read-out and setting: in the case of `O=S(=O)(c1cccs1)N1CCN(c2ccccn2)CC1` it was “inactive”; in that of `Cc1[nH]nc2c1C(c1ccc(F)cc1)C1=C(CC(C)(C)CC1=O)N2` (stereo unspecified), “inactive”.

Turning to `CCOc1ccccc1NC(=O)CN(C)S(=O)(=O)c1cccc2nsnc12`, the outcome was inactive. Regarding `N#CC1=C(N)n2c(s/c(=C\c3ccco3)c2=O)=C(C#N)C1c1ccco1` (stereo unspecified), the outcome was inactive. Regarding `CCC(=O)N1CCc2cc(S(=O)(=O)NCCC(=O)NC3CCCc4ccccc43)ccc21` (stereo unspecified), the result was inactive.

In the case of `CSc1nc2c(c(=O)n1-c1ccccc1)SCC2`, the outcome was inactive.

For the molecule `COc1nc(NCc2ccc(Cl)cc2)nc(OC)n1`, the result was inactive.

Consider `Cc1cc(O)c(C=Nc2cccc(Cl)c2)c(=O)o1`, for which the result was inactive.
